Results on 36 compounds are retold here after article PMC4910395 (Bioorganic & medicinal chemistry, 2015).

Where a name gives a salt, the structure may show the parent alone. Read-outs that look alike come from different tables or passages of the source.

Test [1] deals with T1, NMDA receptor (NR), [^3H]ifenprodil binding site (Rattus norvegicus, UniProt P35439+Q00960). The settings on record: pH 7.4.
In test [2] the target is NMDA receptor (NR), channel binding site labeled with [^3H]MK-801 (Rattus norvegicus, UniProt P35439+Q00959+Q00960). The test can be described thus: Inhibition of [^3H]MK-801 binding to rat cortical membranes. The settings on record: for [^3H]MK-801 Ratio IC50 (30 µM spm)/IC50 (no spm): mean ratio, spermine sensitivity; for IC50: in presence of 30 µM spermine.
The target in test [3] is NMDA receptor, [^3H]MK-801 binding. Particulars: read-out: IC50, inhibition of [^3H]MK-801 binding to rat brain membranes; 5, 4 and 3 methylene groups between the oxygens; cited from earlier work.
Test [4] concerns the target T1, NMDA receptor (NR), [^3H]ifenprodil binding site. Description: biochemical.
A further test deals with NRs in native membranes. Particulars: native membranes from rat frontoparietal cortex and hippocampus; cited from earlier work.
Setting [5] is: read-out: [^3H]MK-801 IC50 ± SD (n), 30 µM spm.
Where [6] appears, read: [^3H]MK-801 IC50 ± SD (n), 30 µM spm.

NMDA receptor (NR), channel binding site labeled with [^3H]MK-801, sequence (Q00959 23-1464, other chains not shown): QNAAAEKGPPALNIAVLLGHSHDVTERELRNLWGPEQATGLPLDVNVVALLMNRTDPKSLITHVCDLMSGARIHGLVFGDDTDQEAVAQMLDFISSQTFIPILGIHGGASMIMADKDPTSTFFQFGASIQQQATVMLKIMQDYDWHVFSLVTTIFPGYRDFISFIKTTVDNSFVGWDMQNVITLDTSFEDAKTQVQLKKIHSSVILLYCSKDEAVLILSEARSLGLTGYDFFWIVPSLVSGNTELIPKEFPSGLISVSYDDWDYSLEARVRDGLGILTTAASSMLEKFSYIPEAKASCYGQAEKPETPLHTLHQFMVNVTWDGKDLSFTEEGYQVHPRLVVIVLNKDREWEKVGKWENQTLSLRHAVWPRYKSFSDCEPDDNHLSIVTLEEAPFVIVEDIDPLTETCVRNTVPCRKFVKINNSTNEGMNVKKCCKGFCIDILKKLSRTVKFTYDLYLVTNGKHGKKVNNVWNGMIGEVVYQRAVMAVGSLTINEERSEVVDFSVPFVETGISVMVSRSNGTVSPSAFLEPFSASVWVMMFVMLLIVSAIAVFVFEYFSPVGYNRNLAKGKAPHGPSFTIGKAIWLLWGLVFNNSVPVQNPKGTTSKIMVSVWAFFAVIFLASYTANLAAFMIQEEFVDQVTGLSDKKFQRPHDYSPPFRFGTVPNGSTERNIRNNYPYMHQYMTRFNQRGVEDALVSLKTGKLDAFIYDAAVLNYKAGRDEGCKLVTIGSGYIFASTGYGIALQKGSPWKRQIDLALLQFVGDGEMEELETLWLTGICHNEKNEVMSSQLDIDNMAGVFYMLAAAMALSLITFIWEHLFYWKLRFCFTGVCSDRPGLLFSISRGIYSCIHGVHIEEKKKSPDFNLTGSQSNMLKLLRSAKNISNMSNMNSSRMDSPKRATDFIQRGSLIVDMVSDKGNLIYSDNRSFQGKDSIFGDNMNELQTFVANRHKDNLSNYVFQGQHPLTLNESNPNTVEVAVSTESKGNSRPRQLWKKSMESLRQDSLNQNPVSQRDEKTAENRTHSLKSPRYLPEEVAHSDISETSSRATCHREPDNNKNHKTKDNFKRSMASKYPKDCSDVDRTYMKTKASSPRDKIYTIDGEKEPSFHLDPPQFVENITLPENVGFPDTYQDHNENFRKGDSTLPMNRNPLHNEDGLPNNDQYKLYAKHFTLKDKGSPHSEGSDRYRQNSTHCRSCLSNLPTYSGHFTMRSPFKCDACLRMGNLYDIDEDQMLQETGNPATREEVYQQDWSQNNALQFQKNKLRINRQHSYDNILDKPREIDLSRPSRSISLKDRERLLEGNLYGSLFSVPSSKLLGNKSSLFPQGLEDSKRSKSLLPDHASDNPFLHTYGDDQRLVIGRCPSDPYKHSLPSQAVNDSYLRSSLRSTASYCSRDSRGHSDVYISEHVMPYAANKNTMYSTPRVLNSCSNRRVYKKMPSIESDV
NMDA receptor (NR), channel binding site labeled with [^3H]MK-801, sequence (Q00960 27-1482, other chains not shown): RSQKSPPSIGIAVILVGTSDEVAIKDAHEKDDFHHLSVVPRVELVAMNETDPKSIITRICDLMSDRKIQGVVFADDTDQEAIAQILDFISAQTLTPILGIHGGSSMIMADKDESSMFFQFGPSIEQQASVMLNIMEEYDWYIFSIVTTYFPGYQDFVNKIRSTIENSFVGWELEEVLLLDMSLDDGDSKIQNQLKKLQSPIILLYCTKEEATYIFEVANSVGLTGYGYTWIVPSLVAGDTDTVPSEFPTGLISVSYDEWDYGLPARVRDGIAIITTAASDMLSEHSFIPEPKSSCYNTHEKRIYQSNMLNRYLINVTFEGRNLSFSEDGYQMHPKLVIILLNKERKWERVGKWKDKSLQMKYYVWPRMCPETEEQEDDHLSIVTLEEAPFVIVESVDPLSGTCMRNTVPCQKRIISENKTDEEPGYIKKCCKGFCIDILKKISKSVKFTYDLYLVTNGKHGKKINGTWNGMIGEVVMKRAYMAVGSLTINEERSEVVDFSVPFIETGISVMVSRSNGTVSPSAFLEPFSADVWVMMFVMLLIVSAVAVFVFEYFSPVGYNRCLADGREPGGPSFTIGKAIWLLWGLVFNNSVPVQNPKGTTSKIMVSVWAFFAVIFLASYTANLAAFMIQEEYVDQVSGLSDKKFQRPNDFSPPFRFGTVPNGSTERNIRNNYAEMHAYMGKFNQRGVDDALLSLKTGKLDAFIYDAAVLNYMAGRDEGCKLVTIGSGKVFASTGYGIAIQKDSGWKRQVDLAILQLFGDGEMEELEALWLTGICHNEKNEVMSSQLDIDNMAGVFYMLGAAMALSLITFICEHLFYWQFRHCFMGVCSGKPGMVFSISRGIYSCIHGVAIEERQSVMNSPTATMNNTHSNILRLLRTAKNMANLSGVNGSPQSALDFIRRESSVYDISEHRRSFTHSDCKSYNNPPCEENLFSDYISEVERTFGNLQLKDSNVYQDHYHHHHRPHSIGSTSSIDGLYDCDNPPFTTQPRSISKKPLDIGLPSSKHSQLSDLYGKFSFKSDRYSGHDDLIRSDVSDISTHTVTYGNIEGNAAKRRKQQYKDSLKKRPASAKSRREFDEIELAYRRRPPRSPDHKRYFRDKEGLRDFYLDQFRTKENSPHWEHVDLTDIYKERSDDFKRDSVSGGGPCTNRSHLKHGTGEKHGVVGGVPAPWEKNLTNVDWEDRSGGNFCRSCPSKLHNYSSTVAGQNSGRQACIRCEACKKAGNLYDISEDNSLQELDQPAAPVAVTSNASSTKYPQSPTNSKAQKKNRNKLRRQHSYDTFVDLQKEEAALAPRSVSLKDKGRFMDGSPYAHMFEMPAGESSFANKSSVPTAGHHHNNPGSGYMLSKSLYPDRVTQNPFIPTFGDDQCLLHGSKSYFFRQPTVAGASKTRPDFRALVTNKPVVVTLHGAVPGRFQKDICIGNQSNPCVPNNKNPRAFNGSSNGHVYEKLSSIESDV
T1 sequence (Q00960 27-1482, other chains not shown): as above

One may read the IC50 as the point on the concentration scale where inhibition reaches its midpoint. Consider “1,5-Bis(1-amidino-3-methoxyphenylamino)pentane dihydrochloride [compound 9]”, for which, in test [1], the IC50 was found to be 4.54 µM.
Take “1,5-Bis[(1-amidinophenyl)N-methylamino]-3-oxapentane [compound 11]”: the IC50 in test [1] is 21.9 ± 5.2 µM; in test [2] (setting [5]), 12.5 ± 1.8 µM. In addition, the “[^3H]MK-801 Ratio IC50 (30 µM spm)/IC50 (no spm)” value (“[^3H]MK-801 Ratio IC50 … (no spm)” for short) in test [2] is reported as 15.2 ± 2.2 (3).
Regarding `N=C(N)NCCCCNC(=N)N` [Arcaine, reference compound], the “[^3H]MK-801 Ratio IC50 … (no spm)” value in test [2] is 33.6 (2).
For the compound `N=C(N)c1ccc(OCCCCCOc2ccc(C(=N)N)cc2)cc1` [compound 1, Pentamidine, reference compound], the results for the IC50 in test [3], in test [4] and in test [2] (setting [6]) were 2.59 µM, 32.5 µM and 24.9 ± 5.7 µM, respectively. For the same compound, in test [2], the “[^3H]MK-801 Ratio IC50 … (no spm)” value is listed as 9.1 ± 2.5 (7).
Consider `N=C(N)c1ccc(SCCOCCSc2ccc(C(=N)N)cc2)cc1` [compound 5], for which the IC50 in test [2] (setting [6]) was found to be 23.8 ± 2.7 µM. Also, in test [2], the “[^3H]MK-801 Ratio IC50 … (no spm)” value was 20.2 ± 6.1 (3).
On to `N=C(N)c1ccc(N2CCN(c3ccc(C(=N)N)cc3)CC2)cc1` [compound 16], for which the “[^3H]MK-801 Ratio IC50 … (no spm)” value in test [2] was 26.2 (2).
As to `N=C(NC1CC1)c1ccc(N2CCN(c3ccc(C(=N)NC4CC4)cc3)CC2)cc1` [compound 18], in test [2], the “[^3H]MK-801 Ratio IC50 … (no spm)” value is 21.8 (2).
On the same count and under the same terms, then `CCCNC(=N)c1ccc(N2CCN(c3ccc(C(=N)NCCC)cc3)CC2)cc1` [compound 19], with 21.8 (2); and `CC(C)(C)/N=C(\N)c1ccc(N2CCCN(c3ccc(/C(N)=N/C(C)(C)C)cc3)CC2)cc1` [compound 27], with 16.8 (2); and `N=C(NCCCO)c1ccc(N2CCCN(c3ccc(/C(N)=N/CCCO)cc3)CC2)cc1` [compound 31], with 9.72 (2).
For the compound `c1cc(N2CCCN(c3ccc(C4=NCCN4)cc3)CC2)ccc1C1=NCCN1` [compound 32], the “[^3H]MK-801 Ratio IC50 … (no spm)” value in test [2] is given as 30.1 (2).
Turning to `CN(CCNc1ccc(C(=N)N)cc1)c1ccc(C(=N)N)cc1` [compound 35], the “[^3H]MK-801 Ratio IC50 … (no spm)” value in test [2] was 30.2 (2).
Consider `CN(CCN(C)c1ccc(C(=N)N)cc1)c1ccc(C(=N)N)cc1` [compound 37], for which the “[^3H]MK-801 Ratio IC50 … (no spm)” value in test [2] is listed as 20.9 (2).
As for `CCN(CCN(CC)c1ccc(C(=N)N)cc1)c1ccc(C(=N)N)cc1` [compound 38], the “[^3H]MK-801 Ratio IC50 … (no spm)” value in test [2] is reported as 11.8 (2).
Take `N=C(N)c1ccc(NCCCNc2ccc(C(=N)N)cc2)cc1` [compound 39]: in test [2], the “[^3H]MK-801 Ratio IC50 … (no spm)” value is on record as 17.0 (2).
The same measure, in the same setting: under `N=C(N)c1ccc(NCCCCNc2ccc(C(=N)N)cc2)cc1` [compound 41] stands 17.2 (2).
In the case of `N=C(N)c1ccc(NCCCCCCNc2ccc(C(=N)N)cc2)cc1` [compound 42], the “[^3H]MK-801 Ratio IC50 … (no spm)” value in test [2] is 5.26 (2).
Consider `N=C(N)c1ccc(NCCCCCCCNc2ccc(C(=N)N)cc2)cc1` [compound 43, 1,7-Bis[(1-amidinophenyl)amino]heptane dihydrochloride], for which the “[^3H]MK-801 Ratio IC50 … (no spm)” value in test [2] is recorded as 5.37 (2).
Take `N=C(N)c1ccc(NCCCCCCCCNc2ccc(C(=N)N)cc2)cc1` [compound 44]: the “[^3H]MK-801 Ratio IC50 … (no spm)” value in test [2] is 4.37 (2).
`N=C(N)c1ccc(NC(=O)CCCC(=O)Nc2ccc(C(=N)N)cc2)cc1` [compound 45] gave a half-maximal inhibitory concentration (IC50) in test [4] of 65.6 µM. In addition, the “Fold weaker than pentamidine” value in test [2] (no spermine) is recorded as 100 fold.
Take `N=C(N)c1ccc(NC(=O)CCCCC(=O)Nc2ccc(C(=N)N)cc2)cc1` [compound 46]: the “[^3H]MK-801 Ratio IC50 … (no spm)” value in test [2] was 3.46 (2).
`N=C(N)c1ccc(C(=O)NCCCCCCNC(=O)c2ccc(C(=N)N)cc2)cc1` [compound 55]: in test [2], the “[^3H]MK-801 Ratio IC50 … (no spm)” value is given as 4.59 (2).
As to `N=C(N)c1ccc(OCc2ccccc2COc2ccc(C(=N)N)cc2)cc1` [compound 57], in test [4], the IC50 was found to be 2.05 µM.
On the same count and under the same terms, under `N=C(N)c1ccc(OCc2ccc(COc3ccc(C(=N)N)cc3)cc2)cc1` [compound 59] stands 16.8 µM.
In test [4], `N=C(N)c1ccc(OC(=O)c2ccc(C(=O)Oc3ccc(C(=N)N)cc3)cc2)cc1` [compound 60] returned an IC50 of 38.6 µM. For the same compound, in test [2], the “[^3H]MK-801 Ratio IC50 … (no spm)” value is given as 3.98 (2).
Take `N=C(N)c1ccc(NC(=O)c2cccc(C(=O)Nc3ccc(C(=N)N)cc3)c2)cc1` [compound 61]: the “[^3H]MK-801 Ratio IC50 … (no spm)” value in test [2] is 0.97 (2).
Regarding `N=C(N)c1ccc(NC(=O)c2ccc(C(=O)Nc3ccc(C(=N)N)cc3)cc2)cc1` [compound 62], the “[^3H]MK-801 Ratio IC50 … (no spm)” value in test [2] was 0.96 (2).
In the case of `N=C(N)c1ccc(NC(=O)c2cccc(C(=O)Nc3ccc(C(=N)N)cc3)n2)cc1` [compound 65], in test [2], the “[^3H]MK-801 Ratio IC50 … (no spm)” value is reported as 1.22 (2).
For `N=C(N)c1ccc(C(=O)Nc2cccc(NC(=O)c3ccc(C(=N)N)cc3)n2)cc1` [compound 67], in test [2], the “[^3H]MK-801 Ratio IC50 … (no spm)” value is 1.85 (2).
On the same count and under the same terms, under `CC/N=C(\N)c1ccc(-c2ccc(-c3ccc(/C(N)=N/CC)cc3)o2)cc1` [compound 70] stands 2.56 (2).
With `N=C(N)c1ccc(-c2ccc(-c3ccc(C(=N)N)s3)s2)s1` [compound 71, 5,5″-Diamidino-2,2′:5′,2″-terthiophene dihydrochloride], in test [2], the “[^3H]MK-801 Ratio IC50 … (no spm)” value is on record as 1.50 (2).
On to `N=C(N)c1ccc(-c2ccc(-c3ccc(C(=N)N)cc3)c(F)c2)cc1` [compound 73], for which, in test [2], the “[^3H]MK-801 Ratio IC50 … (no spm)” value is reported as 4.63 (2).
Regarding `N=C(N)c1ccc(-c2ccc(-c3nc4ccc(C(=N)N)cc4[nH]3)s2)cc1` [compound 74], the “[^3H]MK-801 Ratio IC50 … (no spm)” value in test [2] is reported as 4.14 (2).
With `N=C(N)c1ccc(-c2ccc(-c3ccc(-c4ccc(C(=N)N)o4)s3)s2)o1` [compound 75], the “[^3H]MK-801 Ratio IC50 … (no spm)” value in test [2] is 4.26 (2).
As for `CC(C(O)c1ccc(O)cc1)N1CCC(Cc2ccccc2)CC1` (stereo not drawn) [ifenprodil], in the test on NRs in native membranes, the “Share of NRs blocked with high affinity” value is 23%.
Regarding “N,N-Bis[2-(1-amidino-3-methoxyphenoxy)ethyl]-4-methylbenzenesulfonamide dihydrochloride [compound 15]”, the IC50 was 0.84 µM in test [1] and 28.7 ± 4.4 µM in test [2] (setting [5]).
